The text below walks through data of patent publication US6706740B2, “Fungicidal heterocyclic aromatic amides and their compositions, methods of use and preparation” (Dow AgroSciences LLC, priority 1999, dated 2004).

One data set relates to Septoria tritici—SEPTTR. The experiment in a line: Leaf Blotch of Wheat, in vivo whole plant, 24 Hour Protectant. To be noted: Zymoseptoria tritici, 24 h, control of fungal infection vs untreated plants, read-out: SEPTTR in vivo 1 Day Protectant.
The subject of data set [1] is Phytophthora infestans (PHYTIN). Kind of data set: microbe, parasite or virus in culture. Format: cell-based. To be noted: Phytophthora infestans, read-out: PHYTIN in vitro Growth Inhibition.
Data set [2] has as its system Puccinia recondita—PUCCRT. Kind of data set: Brown Rust of Wheat, in vivo whole plant, 24 Hour Protectant. As to conditions: Puccinia, control of fungal infection vs untreated plants, read-out: PUCCRT in vivo 1 Day Protectant.
Data set [3] has as its system Stagonospora nodorum (Leptosphaeria nodorum—LEPTNO). The experiment in a line: In vitro fungal growth inhibition, Stagonospora nodorum (LEPTNO). Format: cell-based. As to conditions: Leptosphaeria, read-out: LEPTNO in vitro Growth Inhibition.
The test system of data set [4] is Mycosphaerella graminicola (Septoria tritici—SEPTTR). Kind of data set: In vitro fungal growth inhibition, Mycosphaerella graminicola (SEPTTR). Format: cell-based. As to conditions: Zymoseptoria tritici, read-out: SEPTTR in vitro Growth Inhibition.
Data set [5] relates to Leptosphaeria nodorum—LEPTNO. The experiment in a line: Glume Blotch of Wheat, in vivo whole plant, 24 Hour Protectant. To be noted: Leptosphaeria, control of fungal infection vs untreated plants, read-out: LEPTNO in vivo 1 Day Protectant.
Data set [6] concerns Rhizoctonia solani (RHIZSO). The experiment in a line: microbe, parasite or virus in culture. Format: cell-based. As to conditions: Rhizoctonia solani, read-out: RHIZSO in vitro Growth Inhibition.
For data set [7], the system named is Magnaporthe grisea (Pyricularia oryzae—PYRIOR). The experiment in a line: microbe, parasite or virus in culture. Format: cell-based. As to conditions: Pyricularia oryzae, read-out: PYRIOR in vitro Growth Inhibition.
Data set [8] deals with Phytophthora infestans—PHYTIN. Kind of data set: whole plant or invertebrate. Format: in vivo. To be noted: Phytophthora, in Solanum lycopersicum, 24 h, read-out: PHYTIN in vivo 1 Day Protectant.
In the next data set the test system is Ustilago maydis (USTIMA). The experiment in a line: microbe, parasite or virus in culture. Format: cell-based. As to conditions: Mycosarcoma maydis, read-out: USTIMA in vitro Growth Inhibition.
The next data set deals with Erysiphe graminis—ERYSGT. The experiment in a line: Powdery Mildew of Wheat, in vivo whole plant, 24 Hour Protectant. As to conditions: Erysiphe, control of fungal infection vs untreated plants, read-out: ERYSGT in vivo 1 Day Protectant.
[9] abbreviates: wheat plants sprayed at 100 ppm, inoculated after 24 hours.
The mark [10] stands for this setting: 100 ppm spray, 24 hour protectant, wheat.

Where two headings read alike, the source gives them in different places.

The term inhibition denotes the share of the control response that was lost under treatment. The melting point is the temperature of the solid-liquid transition.

For `CC1(C)CC(NC(=O)c2cncnc2O)CC(C)(C)C1` [Compound 539], the melting point was in the range of 263 to 265 °C. Also, the pest or weed control at 100 ppm in the data set on Septoria tritici—SEPTTR (setting [9]) fell in the range of 25 to 74%. Further, the inhibition at 25 ppm in [1] is under 80%. The pest or weed control at 100 ppm in data set [2] (setting [9]) fell in the range of 25 to 74%. In data set [3] (25 ppm in the growth medium), the inhibition at 25 ppm was under 80%. In data set [4] (25 ppm in the growth medium), the inhibition at 25 ppm was over 80%. Also, in data set [5] (setting [9]), the pest or weed control at 100 ppm is 25 to 74%. For the same compound, in data set [6], the inhibition at 25 ppm was under 80%. Also, the inhibition at 25 ppm in [7] is under 80%. The pest or weed control at 100 ppm in data set [8] was under 25%. Also, the inhibition at 25 ppm in the data set with Ustilago maydis (USTIMA) is under 80%. Further, the pest or weed control at 100 ppm in the data set with Erysiphe graminis—ERYSGT (setting [9]) was under 25%.

As for `CC1(C)CC(NC(=O)c2conc2O)CC(C)(C)C1` [Compound 560], the melting point is 186 to 188 °C. Besides, the pest or weed control at 100 ppm with Septoria tritici—SEPTTR (setting [9]) fell in the range of 25 to 74%. Also, the inhibition at 25 ppm in data set [1] was under 80%. Further, in [2] (setting [9]), the pest or weed control at 100 ppm is 25 to 74%. Further, in data set [3] (25 ppm in the growth medium), the inhibition at 25 ppm is under 80%. Further, the inhibition at 25 ppm in data set [4] (25 ppm in the growth medium) is under 80%. The pest or weed control at 100 ppm in [5] (setting [9]) was 25 to 74%. Besides, the inhibition at 25 ppm in [6] is under 80%. Further, the inhibition at 25 ppm in data set [7] was under 80%. Moreover, the pest or weed control at 100 ppm in data set [8] is under 25%. For the same compound, in the data set on Ustilago maydis (USTIMA), the inhibition at 25 ppm was under 80%. Besides, in the data set on Erysiphe graminis—ERYSGT (setting [9]), the pest or weed control at 100 ppm is under 25%.

On to `COc1ccnc(C(=O)Nc2ccc(Oc3cccc(C(F)(F)F)c3)nc2)c1O` [Compound 471], for which the melting point lay in the range of 193 to 195 °C. In addition, the pest or weed control at 100 ppm in the data set with Septoria tritici—SEPTTR (setting [9]) was in the range of 25 to 74%. Moreover, in data set [1], the inhibition at 25 ppm is under 80%. The pest or weed control at 100 ppm in data set [2] (setting [9]) lay within 25 to 74%. Besides, the inhibition at 25 ppm in data set [3] (25 ppm in the growth medium) is over 80%. Moreover, the inhibition at 25 ppm in [4] (25 ppm in the growth medium) was under 80%. For the same compound, the pest or weed control at 100 ppm in data set [5] (setting [9]) was in the range of 25 to 74%. The inhibition at 25 ppm in data set [6] was under 80%. The inhibition at 25 ppm in data set [7] is under 80%. In data set [8], the pest or weed control at 100 ppm is under 25%. Further, the inhibition at 25 ppm in the data set on Ustilago maydis (USTIMA) is under 80%. For the same compound, in the data set on Erysiphe graminis—ERYSGT (setting [9]), the pest or weed control at 100 ppm is under 25%.

Turning to `O=C(NCc1ccc(Cl)cc1)c1ncccc1O` [Compound 220], the melting point is 95 to 97 °C. The pest or weed control at 100 ppm in the data set with Septoria tritici—SEPTTR (setting [10]) is under 25%. Also, the inhibition at 25 ppm in [1] was over 80%. The pest or weed control at 100 ppm in data set [2] (setting [10]) was under 25%. The inhibition at 25 ppm in data set [3] (25 ppm in growth medium) was over 80%. In data set [4] (25 ppm in growth medium), the inhibition at 25 ppm was over 80%. The pest or weed control at 100 ppm in [5] (setting [10]) was under 25%. Further, in data set [6], the inhibition at 25 ppm is over 80%. In data set [7], the inhibition at 25 ppm was over 80%. Besides, the pest or weed control at 100 ppm in data set [8] is 25 to 74%. For the same compound, in the data set with Ustilago maydis (USTIMA), the inhibition at 25 ppm was over 80%. Moreover, the pest or weed control at 100 ppm with Erysiphe graminis—ERYSGT (setting [10]) is under 25%.

In turn, `CC(=O)Oc1cccnc1C(=O)NC1CCC(OC(C)=O)CC1` (stereo not drawn) [Compound 564] displayed a melting point of 158 to 161 °C. Further, the pest or weed control at 100 ppm in the data set on Septoria tritici—SEPTTR (setting [9]) is under 25%. The inhibition at 25 ppm in data set [1] is under 80%. Moreover, the pest or weed control at 100 ppm in data set [2] (setting [9]) is under 25%. Moreover, the inhibition at 25 ppm in data set [3] (25 ppm in the growth medium) is under 80%. In addition, the inhibition at 25 ppm in data set [4] (25 ppm in the growth medium) is under 80%. In [5] (setting [9]), the pest or weed control at 100 ppm was in the range of 25 to 74%. Besides, the inhibition at 25 ppm in data set [6] was under 80%. For the same compound, the inhibition at 25 ppm in [7] is under 80%. In addition, the pest or weed control at 100 ppm in [8] is under 25%. Besides, in the data set on Ustilago maydis (USTIMA), the inhibition at 25 ppm is under 80%. Moreover, the pest or weed control at 100 ppm in the data set on Erysiphe graminis—ERYSGT (setting [9]) was under 25%.

As to `CC(C)C(=O)O[C@H]1[C@H](C)OC(=O)[C@@H](NC(=O)c2nc(Cl)c(Cl)nc2O)COC(=O)[C@@H]1Cc1ccccc1` [Compound 538], the melting point was 108 to 110 °C. Besides, the pest or weed control at 100 ppm in the data set on Septoria tritici—SEPTTR (setting [9]) lay in the range of 25 to 74%. The inhibition at 25 ppm in [1] is under 80%. Further, the pest or weed control at 100 ppm in data set [2] (setting [9]) lay within 25 to 74%. In addition, the inhibition at 25 ppm in data set [3] (25 ppm in the growth medium) was under 80%. For the same compound, the inhibition at 25 ppm in data set [4] (25 ppm in the growth medium) was under 80%. In addition, the pest or weed control at 100 ppm in data set [5] (setting [9]) is 25 to 74%. In addition, in data set [6], the inhibition at 25 ppm is under 80%. Besides, in [7], the inhibition at 25 ppm was under 80%. Further, the pest or weed control at 100 ppm in data set [8] was under 25%. For the same compound, the inhibition at 25 ppm in the data set on Ustilago maydis (USTIMA) is under 80%. The pest or weed control at 100 ppm in the data set on Erysiphe graminis—ERYSGT (setting [9]) is under 25%.
